PubChem BioAssay AID1259407 (Chemical Carcinogenesis Research Information System (CCRIS), 2018)
The source made the active and inactive calls. The rule behind the calls is not given here.

System: CCRIS mutagenicity, Ames/micronucleus/aberration tests
Assay: CCRIS mutagenicity studies
[1] = Test System: AMES SALMONELLA TYPHIMURIUM, Strain/Indicator: TA98, Metabolic Activation: NONE, Method: STANDARD PLATE
[2] = Test System: AMES SALMONELLA TYPHIMURIUM, Strain/Indicator: TA100, Metabolic Activation: NONE, Method: STANDARD PLATE
[3] = Test System: AMES SALMONELLA TYPHIMURIUM, Strain/Indicator: TA1535, Metabolic Activation: NONE, Method: STANDARD PLATE
[4] = Test System: AMES SALMONELLA TYPHIMURIUM, Strain/Indicator: TA1537, Metabolic Activation: NONE, Method: STANDARD PLATE
[5] = Test System: AMES SALMONELLA TYPHIMURIUM, Strain/Indicator: TA98, Metabolic Activation: RAT, LIVER, S-9, AROCLOR 1254, Method: STANDARD PLATE
[6] = Test System: AMES SALMONELLA TYPHIMURIUM, Strain/Indicator: TA100, Metabolic Activation: RAT, LIVER, S-9, AROCLOR 1254, Method: STANDARD PLATE

Structure (SMILES): O=[N+]([O-])c1ccc(CNc2ncnc3nc[nH]c23)cc1
- mutagenic call (Test System: AMES SALMONELLA TYPHIMURIUM, Strain/Indicator: TA98(1,8-DNP), Metabolic Activation: NONE, Method: PREINCUBATION): inactive; negative
- mutagenic call (Test System: AMES SALMONELLA TYPHIMURIUM, Strain/Indicator: TA98(1,8-DNP), Metabolic Activation: RAT, LIVER, S-9, PCB, Method: PREINCUBATION): inactive; negative
- mutagenic call (Test System: AMES SALMONELLA TYPHIMURIUM, Strain/Indicator: TA98(NR), Metabolic Activation: NONE, Method: PREINCUBATION): inactive; negative
- mutagenic call (Test System: AMES SALMONELLA TYPHIMURIUM, Strain/Indicator: TA98(NR), Metabolic Activation: RAT, LIVER, S-9, PCB, Method: PREINCUBATION): inactive; negative
- mutagenic call (Test System: AMES SALMONELLA TYPHIMURIUM, Strain/Indicator: TA98, Metabolic Activation: NONE, Method: PREINCUBATION): inactive; negative
- mutagenic call (Test System: AMES SALMONELLA TYPHIMURIUM, Strain/Indicator: TA98, Metabolic Activation: RAT, LIVER, S-9, PCB, Method: PREINCUBATION): inactive; negative
- mutagenic call (Test System: AMES SALMONELLA TYPHIMURIUM, Strain/Indicator: TA100(1,8-DNP), Metabolic Activation: NONE, Method: PREINCUBATION): inactive; negative
- mutagenic call (Test System: AMES SALMONELLA TYPHIMURIUM, Strain/Indicator: TA100(1,8-DNP), Metabolic Activation: RAT, LIVER, S-9, PCB, Method: PREINCUBATION): inactive; negative
- mutagenic call (Test System: AMES SALMONELLA TYPHIMURIUM, Strain/Indicator: TA100(NR), Metabolic Activation: NONE, Method: PREINCUBATION): inactive; negative
- mutagenic call (Test System: AMES SALMONELLA TYPHIMURIUM, Strain/Indicator: TA100(NR), Metabolic Activation: RAT, LIVER, S-9, PCB, Method: PREINCUBATION): inactive; negative
- mutagenic call (Test System: AMES SALMONELLA TYPHIMURIUM, Strain/Indicator: TA100, Metabolic Activation: NONE, Method: PREINCUBATION): inactive; negative
- mutagenic call (Test System: AMES SALMONELLA TYPHIMURIUM, Strain/Indicator: TA100, Metabolic Activation: RAT, LIVER, S-9, PCB, Method: PREINCUBATION): inactive; negative
- mutagenic call (Test System: AMES SALMONELLA TYPHIMURIUM, Strain/Indicator: YG1020, Metabolic Activation: NONE, Method: PREINCUBATION): inactive; negative
- mutagenic call (Test System: AMES SALMONELLA TYPHIMURIUM, Strain/Indicator: YG1020, Metabolic Activation: RAT, LIVER, S-9, PCB, Method: PREINCUBATION): inactive; negative
- mutagenic call (Test System: AMES SALMONELLA TYPHIMURIUM, Strain/Indicator: YG1021, Metabolic Activation: NONE, Method: PREINCUBATION): inactive; negative
- mutagenic call (Test System: AMES SALMONELLA TYPHIMURIUM, Strain/Indicator: YG1021, Metabolic Activation: RAT, LIVER, S-9, PCB, Method: PREINCUBATION): active; positive
- mutagenic call (Test System: AMES SALMONELLA TYPHIMURIUM, Strain/Indicator: YG1024, Metabolic Activation: NONE, Method: PREINCUBATION): active; positive
- mutagenic call (Test System: AMES SALMONELLA TYPHIMURIUM, Strain/Indicator: YG1024, Metabolic Activation: RAT, LIVER, S-9, PCB, Method: PREINCUBATION): inactive; negative
- mutagenic call (Test System: AMES SALMONELLA TYPHIMURIUM, Strain/Indicator: YG1025, Metabolic Activation: NONE, Method: PREINCUBATION): inactive; negative
- mutagenic call (Test System: AMES SALMONELLA TYPHIMURIUM, Strain/Indicator: YG1025, Metabolic Activation: RAT, LIVER, S-9, PCB, Method: PREINCUBATION): inactive; negative
- mutagenic call (Test System: AMES SALMONELLA TYPHIMURIUM, Strain/Indicator: YG1026, Metabolic Activation: NONE, Method: PREINCUBATION): inactive; negative
- mutagenic call (Test System: AMES SALMONELLA TYPHIMURIUM, Strain/Indicator: YG1026, Metabolic Activation: RAT, LIVER, S-9, PCB, Method: PREINCUBATION): inactive; negative
- mutagenic call (Test System: AMES SALMONELLA TYPHIMURIUM, Strain/Indicator: YG1029, Metabolic Activation: NONE, Method: PREINCUBATION): inactive; negative
- mutagenic call (Test System: AMES SALMONELLA TYPHIMURIUM, Strain/Indicator: YG1029, Metabolic Activation: RAT, LIVER, S-9, PCB, Method: PREINCUBATION): inactive; negative

Structure (SMILES): O=c1c2ccccc2[se]n1-c1ccccc1
- mutagenic call [1]: inactive; negative
- mutagenic call (Test System: AMES SALMONELLA TYPHIMURIUM, Strain/Indicator: TA98, Metabolic Activation: RAT LIVER S-9, PHENOBARBITAL AND 5,6-BENZOFLAVONE, Method: STANDARD PLATE): inactive; negative
- mutagenic call [2]: inactive; negative
- mutagenic call (Test System: AMES SALMONELLA TYPHIMURIUM, Strain/Indicator: TA100, Metabolic Activation: RAT LIVER S-9, PHENOBARBITAL AND 5,6-BENZOFLAVONE, Method: STANDARD PLATE): inactive; negative
- mutagenic call [3]: inactive; negative
- mutagenic call (Test System: AMES SALMONELLA TYPHIMURIUM, Strain/Indicator: TA1535, Metabolic Activation: RAT LIVER S-9, PHENOBARBITAL AND 5,6-BENZOFLAVONE, Method: STANDARD PLATE): inactive; negative
- mutagenic call [4]: inactive; negative
- mutagenic call (Test System: AMES SALMONELLA TYPHIMURIUM, Strain/Indicator: TA1537, Metabolic Activation: RAT LIVER S-9, PHENOBARBITAL AND 5,6-BENZOFLAVONE, Method: STANDARD PLATE): inactive; negative
- mutagenic call (Test System: E.COLI, Strain/Indicator: WP2 UVRA, Metabolic Activation: NONE, Method: STANDARD PLATE): inactive; negative
- mutagenic call (Test System: E.COLI, Strain/Indicator: WP2 UVRA, Metabolic Activation: RAT LIVER S-9, PHENOBARBITAL AND 5,6-BENZOFLAVONE, Method: STANDARD PLATE): inactive; negative

Structure (SMILES): C=Cc1ccc(N)cc1
- mutagenic call (Test System: AMES SALMONELLA TYPHIMURIUM, Strain/Indicator: TA98, Metabolic Activation: HAMSTER, LIVER, S-9, AROCLOR 1254, Method: STANDARD PLATE): active; positive
- mutagenic call [1]: inactive; negative
- mutagenic call [5]: inactive; negative
- mutagenic call (Test System: AMES SALMONELLA TYPHIMURIUM, Strain/Indicator: TA100, Metabolic Activation: HAMSTER, LIVER, S-9, AROCLOR 1254, Method: STANDARD PLATE): active; positive
- mutagenic call [2]: inactive; negative
- mutagenic call [6]: inactive; negative
- mutagenic call (Test System: MOUSE LYMPHOMA, Strain/Indicator: L5178Y (TK+/TK-), Metabolic Activation: NONE, Method: SUSPENSION/PLATE): inactive; positive. reevaluation of results: negative
- mutagenic call (Test System: MOUSE LYMPHOMA, Strain/Indicator: L5178Y (TK+/TK-), Metabolic Activation: RAT, LIVER, S-9, AROCLOR 1254, Method: SUSPENSION/PLATE): inactive; positive. reevaluation of results: negative

Structure (SMILES): O=C1CN=C(c2ccccc2)c2cc([N+](=O)[O-])ccc2N1
- mutagenic call [1]: inactive; negative
- mutagenic call [5]: inactive; negative
- mutagenic call [2]: inactive; negative
- mutagenic call [6]: inactive; negative
- mutagenic call (Test System: AMES SALMONELLA TYPHIMURIUM, Strain/Indicator: TA102, Metabolic Activation: NONE, Method: STANDARD PLATE): inactive; negative
- mutagenic call (Test System: AMES SALMONELLA TYPHIMURIUM, Strain/Indicator: TA102, Metabolic Activation: RAT, LIVER, S-9, AROCLOR 1254, Method: STANDARD PLATE): inactive; negative
- mutagenic call [3]: inactive; negative
- mutagenic call (Test System: AMES SALMONELLA TYPHIMURIUM, Strain/Indicator: TA1535, Metabolic Activation: RAT, LIVER, S-9, AROCLOR 1254, Method: STANDARD PLATE): inactive; negative
- mutagenic call [4]: inactive; negative
- mutagenic call (Test System: AMES SALMONELLA TYPHIMURIUM, Strain/Indicator: TA1537, Metabolic Activation: RAT, LIVER, S-9, AROCLOR 1254, Method: STANDARD PLATE): inactive; negative
- mutagenic call (Test System: E. COLI, Strain/Indicator: WP2 UVRA, Metabolic Activation: NONE, Method: STANDARD PLATE): inactive; negative
- mutagenic call (Test System: E. COLI, Strain/Indicator: WP2 UVRA, Metabolic Activation: RAT, LIVER, S-9, AROCLOR 1254, Method: STANDARD PLATE): inactive; negative

Structure (SMILES): CC(=O)CN(COC(C)=O)N=O
- mutagenic call (Test System: AMES SALMONELLA TYPHIMURIUM, Strain/Indicator: TA1535, Metabolic Activation: NONE, Method: PREINCUBATION): active; positive

Structure (SMILES): c1cc2ccc3cc4occc4c4ccc(c1)c2c34
- mutagenic call [1]: inactive; negative
- mutagenic call [5]: active; positive
